Test results taken from US20240351986A1, “UREA COMPOUND CONTAINING 2-HETEROAROMATIC RING SUBSTITUTION, PREPARATION METHOD THEREFOR AND USE THEREOF” (SHANGHAI INSTITUTE OF MATERIA MEDICA, CHINESE ACADEMY OF …, priority 2021, published 2024).
Where a name gives a salt, the structure may show the parent alone.

Target: T1, Recombinant human CDK9/cyclin T1 (Homo sapiens, UniProt P50750)
T1 construct: purchased Carna bioscience 04-110
Assay: CDK9 enzyme inhibitory activity (ADP-Glo kinase assay)
Type: biochemical
Details: CDK9 enzyme activity, average of two independent repeats; for inhibition at 0.01 µM: read-out: Inhibition rate at different concentrations (%) 10 nM; for inhibition at 0.1 µM: read-out: Inhibition rate at different concentrations (%) 100 nM
Method: Experimental method: Recombinant human CDK9/cyclin T1 (Carna bioscience, Cat #04-110) was diluted with dilution buffer (20 mM Tris HCl (pH 7.5), 0.02% Triton X-100, 0.01% BSA, 2 mM DTT, 0.5 mM Na3VO4, 10% Glycerol) to […], the substrates CDK7/9 tide (ThermoFisher, Cat #PV5090) and ATP (sigmaaldrich, Cat #A1852) were diluted with assay buffer (25 mM Tris HCl (pH7.5), 10 mM MgCl2, 0.5 mM EGTA (pH 8), 0.5 mM Na3VO4, 5 mMb-glycerol phosphate, 0.1% Triton X-100, 2.5 mM DTT) to final concentrations of 100 μM and […] respectively, aliquot and set aside. 2 μl of diluted recombinant human CDK9/cyclin T1, 1 μl of test compound, and 2 μl of diluted substrate CDK7/9 tide containing ATP were added to the 384-well plate. […] The positive control was the well in which enzyme and substrate were co-incubated, and the negative control was the well in which dilution buffer and substrate were co-incubated. The inhibition rate was calculated according to the following formula.

T1 sequence (P50750 whole entry): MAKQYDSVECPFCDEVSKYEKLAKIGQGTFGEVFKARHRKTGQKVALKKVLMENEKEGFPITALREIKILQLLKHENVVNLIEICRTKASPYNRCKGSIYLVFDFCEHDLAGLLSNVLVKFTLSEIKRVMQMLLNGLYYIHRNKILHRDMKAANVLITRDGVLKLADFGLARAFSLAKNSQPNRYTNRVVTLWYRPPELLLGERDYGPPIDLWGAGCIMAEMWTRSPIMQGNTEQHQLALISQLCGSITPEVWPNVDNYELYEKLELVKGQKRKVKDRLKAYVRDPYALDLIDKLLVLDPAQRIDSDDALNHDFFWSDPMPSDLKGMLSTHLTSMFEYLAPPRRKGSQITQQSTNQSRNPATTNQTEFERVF
T1 sequence (O60563 whole entry partner): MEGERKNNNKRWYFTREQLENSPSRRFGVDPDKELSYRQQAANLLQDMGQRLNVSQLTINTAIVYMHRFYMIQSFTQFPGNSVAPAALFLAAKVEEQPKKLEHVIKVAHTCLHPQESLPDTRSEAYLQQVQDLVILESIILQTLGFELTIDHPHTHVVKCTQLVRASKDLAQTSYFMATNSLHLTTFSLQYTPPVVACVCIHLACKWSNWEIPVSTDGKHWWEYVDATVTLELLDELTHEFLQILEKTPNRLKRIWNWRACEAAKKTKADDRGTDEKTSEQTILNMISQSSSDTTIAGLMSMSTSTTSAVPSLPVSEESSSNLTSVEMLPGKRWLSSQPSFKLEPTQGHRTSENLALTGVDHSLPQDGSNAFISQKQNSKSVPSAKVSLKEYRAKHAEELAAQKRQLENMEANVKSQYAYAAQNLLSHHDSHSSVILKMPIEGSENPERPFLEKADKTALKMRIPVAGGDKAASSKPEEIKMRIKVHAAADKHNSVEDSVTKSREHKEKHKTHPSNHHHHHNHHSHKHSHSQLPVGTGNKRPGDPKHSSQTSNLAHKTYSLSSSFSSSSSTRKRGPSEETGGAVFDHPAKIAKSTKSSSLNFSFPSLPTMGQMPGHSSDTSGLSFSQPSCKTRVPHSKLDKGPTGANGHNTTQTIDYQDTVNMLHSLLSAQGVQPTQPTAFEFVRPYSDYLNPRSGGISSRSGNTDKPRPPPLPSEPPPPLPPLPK

SMILES | inhibition at 0.01 µM (compound 10 nM) | inhibition at 0.1 µM (compound 100 nM) | Inhibition rate at different concentrations (%) 10 nM (compound 10 nM, 0.01 µM) | Inhibition rate at different concentrations (%) 100 nM (compound 100 nM, 0.1 µM)
CC1(C)Cc2c(-c3cc(NC(=O)NC4CCCC(N)C4)ncc3Cl)cnn2C1 (centres unmarked) [Example 77, 1-(3-aminocyclohexyl)-3-(5-chloro-4-(5,5-dimethyl-5,6-dihydro-4H-pyrrolo[1,2-b]pyrazol-3-yl)pyridin-2-yl)urea] | 60.3% | 92% |  | 
CC1(C)Cc2c(-c3ccnc(NC(=O)NC4CCC(N)CC4)c3)cnn2C1 (centres unmarked) [Example 15, 1-((1r,4r)-4-aminocyclohexyl)-3-(4-(5,5-dimethyl-5,6-dihydro-4H-pyrrole [1,2-b]pyrazole-3-yl)pyridin-2-yl) urea] | 51.1% | 91.5% |  | 
COc1cc(F)ccc1-c1cc(NC(=O)NC2CCC(NCCO)CC2)ncc1Cl (centres unmarked) [Example 20, 1-(5-chloro-4-(4-fluoro-2-methoxyphenyl)pyridin-2-yl)-3-((1r,4r)-4-((2-hydroxyethyl)amino)cyclohexyl)urea] | 38.9% | 88.3% |  | 
CC1(C)Cc2c(-c3cc(NC(=O)NC4CCCNCC4)ncc3Cl)cnn2C1 (centres unmarked) [Example 69, 1-(azepan-4-yl)-3-(5-chloro-4-(5,5-dimethyl-5,6-dihydro-4H-pyrrolo[1,2-b]pyrazol-3-yl)pyridin-2-yl)urea] | 33.8% | 79.5% |  | 
COc1cc(F)ccc1-c1cc(NC(=O)NC2CCC(NC(=O)OC(C)(C)C)CC2)ncn1 (centres unmarked) [Example 39, tert-butyl ((1r,4r)-4-(3-(6-(4-fluoro-2-methoxyphenyl)pyrimidin-4-yl)ureido)cyclohexyl)carbamate] | 28% | 55% |  | 
Cc1c(-c2cc(NC(=O)NC3CCC(N)CC3)ncc2Cl)cnn1C (centres unmarked) [Example 42, 1-((1r,4r)-4-aminocyclohexyl)-3-(5-chloro-4-(1,5-dimethyl-1H-pyrazol-4-yl)pyridin-2-yl)urea] | 44% | 75% |  | 
CCNC1CCCC(NC(=O)Nc2cc(-c3cnn4c3CC(C)(C)C4)c(Cl)cn2)C1 (centres unmarked) [Example 78, 1-(5-chloro-4-(5,5-dimethyl-5,6-dihydro-4H-pyrrolo[1,2-b]pyrazol-3-yl)pyridin-2-yl)-3-(3-(ethylamino)cyclohexyl)urea] | 68% | 80% |  | 
COc1cc(F)ccc1-c1cc(NC(=O)NC2CCC(NC(C)=O)CC2)ncc1Cl (centres unmarked) [Example 22, N-((1r,4r)-4-(3-(5-chloro-4-(4-fluoro-2-methoxyphenyl)pyridin-2-yl)ureido)cyclohexyl)acetamide] | 62.9% | 93.5% |  | 
COCCNC1CCC(NC(=O)Nc2cc(-c3ccc(F)cc3OC)c(Cl)cn2)CC1 (centres unmarked) [Example 19, 1-(5-chloro-4-(4-fluoro-2-methoxyphenyl)pyridin-2-yl)-3-((1r,4r)-4-((2-methoxyethyl)amino)cyclohexyl)urea] | 57.1% | 87.4% |  | 
CC(=O)NC1CCC(NC(=O)Nc2cc(-c3cnn4c3CC3(CC3)C4)c(Cl)cn2)CC1 (centres unmarked) [Example 81, N-((1r,4r)-4-(3-(5-chloro-4-(4′H,6′H-spiro[cyclopropane-1,5′-pyrrolo[1,2-b]pyrazole]-3′-yl)pyridin-2-yl)ureido)cyclohexyl)acetamide] | 58.3% | 91.5% |  | 
COc1cc(F)ccc1-c1cc(NC(=O)NC2CCC(NCCN(C)C)CC2)ncc1Cl (centres unmarked) [Example 27, 1-(5-chloro-4-(4-fluoro-2-methoxyphenyl)pyridin-2-yl)-3-((1r,4r)-4-((2-(dimethylamino)ethyl)amino)cyclohexyl)urea] | 44.2% | 78.4% |  | 
COc1cc(-c2ccnc(NC(=O)NC3CCC(N)CC3)c2)ccc1F (centres unmarked) [Example 6, 1-((1r,4r)-4-aminocyclohexyl)-3-(4-(4-fluoro-3-methoxyphenyl)pyridin-2-yl)urea] | 32% | 74.1% |  | 
COc1cc(F)ccc1-c1cc(NC(=O)NC2CCC(NC(C)=O)CC2)ncn1 (centres unmarked) [Example 40, N-((1r,4r)-4-(3-(6-(4-fluoro-2-methoxyphenyl)pyrimidin-4-yl)ureido)cyclohexyl)acetamide] | 25.3% | 59.5% |  | 
COCC[N+](C)(C)C1CCC(NC(=O)Nc2cc(-c3cnn4c3CC(C)(C)C4)c(Cl)cn2)CC1 (centres unmarked) [Example 91, (1r,4r)-4-(3-(5-chloro-4-(5,5-dimethyl-5,6-dihydro-4H-pyrrolo[1,2-b]pyrazol-3-yl)pyridin-2-yl)ureido)-N-(2-methoxyethyl)-N,N-dimethylcyclohexyl-1-ammonium salt] | 63% | 88% |  | 
CC1(C)Cc2c(-c3cc(NC(=O)NC4CCC(N)CC4)ncc3Cl)cnn2C1 (centres unmarked) [Example 65, 1-((1s,4s)-4-aminocyclohexyl)-3-(5-chloro-4-(5,5-dimethyl-5,6-dihydro-4H-pyrrolo[1,2-b]pyrazol-3-yl)pyridin-2-yl)urea] |  |  | 58.0% | 84.0%
CC1(C)Cc2c(-c3cc(NC(=O)NC4CCC(NC(=O)C5COC5)CC4)ncc3Cl)cnn2C1 (centres unmarked) [Example 50, N-((1r,4r)-4-(3-(5-chloro-4-(5,5-dimethyl-5,6-dihydro-4H-pyrrolo[1,2-b]pyrazol-3-yl)pyridin-2-yl)ureido)cyclohexyl) oxetane-3-carboxamide] | 53.2% | 95.1% |  | 
CC(=O)NC1CCC(NC(=O)Nc2cc(-c3cnn4c3CN(C)CC4)c(Cl)cn2)CC1 (centres unmarked) [Example 83, N-((1r,4r)-4-(3-(5-chloro-4-(5-methyl-4,5,6,7-tetrahydropyrazolo[1,5-a]pyrazin-3-yl)pyridin-2-yl)ureido)cyclohexyl)acetamide] | 40.2% | 68.3% |  | 
CC1(C)Cc2c(-c3cc(NC(=O)NC4CCC(O)CC4)ncc3Cl)cnn2C1 (centres unmarked) [Example 45, 1-(5-chloro-4-(5,5-dimethyl-5,6-dihydro-4H-pyrrolo[1,2-b]pyrazol-3-yl)pyridin-2-yl)-3-((1r,4r)-4-hydroxycyclohexyl)urea] | 48.9% | 94.3% |  | 
CC(=O)NC1CCC(NC(=O)Nc2cc(-c3cnc4n3CC(C)(C)C4)c(Cl)cn2)CC1 (centres unmarked) [Example 86, N-((1r,4r)-4-(3-(5-chloro-4-(6,6-dimethyl-6,7-dihydro-5H-pyrrolo [1,2-a]imidazol-3-)pyridin-2-yl)ureido)cyclohexyl)acetamide] | 50.1% | 88.3% |  | 
COc1cc(F)ccc1-c1ccnc(NC(=O)Nc2ccc(F)nc2)c1 [Example 33, 1-(4-(4-fluoro-2-methoxyphenyl)pyridin-2-yl)-3(6-fluoropyridin-3-yl)urea] | 11.9% | 81% |  | 
COc1cc(F)ccc1-c1ccnc(NC(=O)NC2CCC(NC(C)=O)CC2)c1 (centres unmarked) [Example 4, N-((1r,4r)-4-(3-(4-(4-fluoro-2-methoxyphenyl)pyridin-2-yl)ureido)cyclohexyl)acetamide] | 45.1% | 93.2% |  | 
CC1(C)Cc2c(-c3cc(NC(=O)NC4CCCC(NC(=O)OC(C)(C)C)C4)ncc3Cl)cnn2C1 (centres unmarked) [Example 76, tert-butyl (3-(3-(5-chloro-4-(5,5-dimethyl-5,6-dihydro-4H-pyrrolo[1,2-b]pyrazol-3-yl)pyridin-2-yl)ureido)cyclohexyl)carbamate] | 25% | 91% |  | 
